Consider 8 compounds from PubChem BioAssay (NCI).

Some test systems named below: MALME-3M melanoma; UACC-62 melanoma; OVCAR-4 ovarian; UACC-257 melanoma; K-562 leukemia; NCI/ADR-RES ovarian; SK-OV-3 ovarian; A549 NSCLC; TK-10 renal; HT29 colon.
Assay in all cases: NCI anticancer screen, dose series, 48 h

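Exposure lasted 48 hours, with cells grown in 96-well plates and compounds tested at five concentrations. GI50 = concentration required for 50% inhibition of growth. TGI: total growth inhibition.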

`CCc1ccc(Oc2c(-c3ccc(OCCc4cccc(C(F)(F)F)c4)cc3O)n[nH]c2C(F)(F)F)cc1`: the GI50 in the assay with MALME-3M melanoma is 5.42 µM; with UACC-62 melanoma it was 3.44 µM; in the assay on OVCAR-4 ovarian, 2.22 µM; in the assay on UACC-257 melanoma it was 4.58 µM; in the assay on K-562 leukemia, 1.8 µM; in the assay with NCI/ADR-RES ovarian, 5.19 µM. Further, the GI50 is 6.57 µM in the assay on SK-OV-3 ovarian, 4.89 µM in the assay on A549 NSCLC, 5.52 µM in the assay on TK-10 renal and 8.13 µM in the assay with HT29 colon. Besides, the TGI in the assay on MALME-3M melanoma is 11.8 µM; with UACC-62 melanoma, 10.4 µM; with OVCAR-4 ovarian, 8.05 µM; in the assay with UACC-257 melanoma, 10.6 µM; with K-562 leukemia it was 6.1 µM; in the assay on NCI/ADR-RES ovarian, 11.9 µM. For the same compound, the TGI is 12.9 µM in the assay with SK-OV-3 ovarian, 11.1 µM in the assay on A549 NSCLC, 11.5 µM with TK-10 renal and 14.9 µM in the assay with HT29 colon.

With `CCOC(=O)c1c(-c2ccccc2)n2c(=O)cc(C)c3c(O)c(O)cc1c32`, the GI50 with MALME-3M melanoma was 13.7 µM; in the assay on UACC-62 melanoma it was 7.94 µM; in the assay with OVCAR-4 ovarian it was 2.46 µM; with UACC-257 melanoma, 6.38 µM; in the assay with K-562 leukemia, 6.93 µM; in the assay with NCI/ADR-RES ovarian, 2.47 µM. Moreover, the GI50 in the assay on SK-OV-3 ovarian is 16 µM; in the assay with A549 NSCLC, 5.46 µM; in the assay on TK-10 renal it was 22.7 µM; with HT29 colon it was 7.18 µM. For the same compound, the TGI is 33.6 µM in the assay on MALME-3M melanoma; 20.9 µM in the assay on UACC-62 melanoma; 11.4 µM in the assay on OVCAR-4 ovarian; 28.7 µM in the assay on UACC-257 melanoma; 22.7 µM in the assay with K-562 leukemia; more than 100 µM with NCI/ADR-RES ovarian. Besides, the TGI in the assay with SK-OV-3 ovarian is more than 100 µM; in the assay with A549 NSCLC, 24.6 µM; in the assay on TK-10 renal it was more than 100 µM; in the assay with HT29 colon it was 84 µM.

With `Nc1c(C(=O)Nc2cccc(Cl)c2)sc2nc3c(cc12)C(O)CCC3` (configuration not stated), the GI50 with MALME-3M melanoma is 0.485 µM; in the assay with UACC-62 melanoma it was 0.463 µM; in the assay on OVCAR-4 ovarian, 5.51 µM; with K-562 leukemia it was 0.207 µM; in the assay with NCI/ADR-RES ovarian, 0.583 µM; with SK-OV-3 ovarian, 0.534 µM. Besides, the figures for the GI50 in the assay with A549 NSCLC, in the assay with TK-10 renal and in the assay on HT29 colon were 0.465 µM, 10.8 µM and 0.315 µM, respectively. Further, the TGI was 33.3 µM in the assay on MALME-3M melanoma; 58.8 µM with UACC-62 melanoma; 40.2 µM in the assay with OVCAR-4 ovarian; 22.9 µM with K-562 leukemia; more than 100 µM in the assay with NCI/ADR-RES ovarian; 22.2 µM with SK-OV-3 ovarian. Further, the results for the TGI in the assay with A549 NSCLC, in the assay on TK-10 renal and in the assay with HT29 colon were 17.4 µM, 36.8 µM and 12.2 µM, respectively.

As for `COC(=O)C1C(C(=O)O)C2(c3ccccc3)C(=O)C1(c1ccccc1)C(c1ccc(OC)cc1)=C2c1ccc(OC)cc1` (configuration not stated), the GI50 is 29.8 µM in the assay with MALME-3M melanoma; 18.8 µM in the assay on UACC-62 melanoma; 19.7 µM with OVCAR-4 ovarian; 19.1 µM with UACC-257 melanoma; 28.4 µM in the assay with K-562 leukemia; 20.6 µM in the assay on NCI/ADR-RES ovarian. The GI50 in the assay with SK-OV-3 ovarian was 25.3 µM; in the assay on A549 NSCLC, 15.7 µM; in the assay on TK-10 renal it was 31.8 µM. Further, the TGI in the assay on MALME-3M melanoma was 75.7 µM; in the assay with UACC-62 melanoma it was 35.2 µM; with OVCAR-4 ovarian it was 55.2 µM; in the assay with UACC-257 melanoma, 43.9 µM; with K-562 leukemia it was more than 100 µM; with NCI/ADR-RES ovarian, 43.6 µM. Further, the results for the TGI in the assay on SK-OV-3 ovarian, with A549 NSCLC and in the assay with TK-10 renal were 59.4 µM, 33.5 µM and more than 100 µM, respectively.

With `Cc1ccc2ncnc(N(C)C3CCCCC3)c2c1`, the GI50 in the assay on MALME-3M melanoma was 56 µM; in the assay with UACC-62 melanoma it was 31.9 µM; in the assay on OVCAR-4 ovarian it was 76.5 µM; with K-562 leukemia, 13.5 µM; in the assay with NCI/ADR-RES ovarian it was 19.1 µM; with SK-OV-3 ovarian it was 33.2 µM. Further, the GI50 was 16.1 µM with A549 NSCLC and 36 µM with TK-10 renal. The TGI in the assay on MALME-3M melanoma is more than 100 µM; in the assay with UACC-62 melanoma it was more than 100 µM; in the assay with OVCAR-4 ovarian, more than 100 µM; with K-562 leukemia, 94.4 µM; with NCI/ADR-RES ovarian it was 53 µM; in the assay on SK-OV-3 ovarian, more than 100 µM. Also, the TGI was 44.2 µM in the assay on A549 NSCLC and more than 100 µM in the assay on TK-10 renal.

Regarding `O=C(Cc1cc(O)ccc1O)NO`, the GI50 in the assay on MALME-3M melanoma was 29.1 µM; in the assay on UACC-62 melanoma, 24.7 µM; in the assay on OVCAR-4 ovarian it was more than 100 µM; with UACC-257 melanoma, 59.9 µM; with K-562 leukemia, 21.2 µM; in the assay on NCI/ADR-RES ovarian, more than 100 µM. Also, the GI50 in the assay with SK-OV-3 ovarian was more than 100 µM; with A549 NSCLC it was 89.4 µM; in the assay on TK-10 renal, 57.6 µM. The TGI in the assay on MALME-3M melanoma was more than 100 µM; with UACC-62 melanoma, 63.3 µM; with OVCAR-4 ovarian, more than 100 µM; in the assay on UACC-257 melanoma, more than 100 µM; in the assay on K-562 leukemia, 45.8 µM; in the assay on NCI/ADR-RES ovarian, more than 100 µM. The TGI with SK-OV-3 ovarian, in the assay on A549 NSCLC and in the assay with TK-10 renal was more than 100 µM throughout.

For `CNC(=O)/C=C/C1=CN2C(=O)c3ccc(C)c(O)c3NC(OC)C2C1` (configuration not stated), the TGI with MALME-3M melanoma is 0.0448 µM; in the assay on UACC-62 melanoma, less than 0.0154 µM; in the assay with OVCAR-4 ovarian it was 0.0244 µM; in the assay on UACC-257 melanoma it was less than 0.0169 µM; with K-562 leukemia, more than 100 µM; in the assay on NCI/ADR-RES ovarian it was less than 0.0323 µM. In addition, the values for the TGI with SK-OV-3 ovarian, with A549 NSCLC and in the assay with HT29 colon were more than 8.66 µM, more than 100 µM and 3.29 µM, respectively.

As to `Cc1cc(S(=O)(=O)Nc2nc3ccccc3c(=O)n2Cc2ccco2)c(S)cc1Cl`, the GI50 is 54.8 µM with MALME-3M melanoma; 36.4 µM in the assay with UACC-62 melanoma; 87.7 µM in the assay with OVCAR-4 ovarian; more than 100 µM in the assay on UACC-257 melanoma; 49.7 µM in the assay on K-562 leukemia; 54.8 µM in the assay on NCI/ADR-RES ovarian. The values for the GI50 in the assay with A549 NSCLC, in the assay with TK-10 renal and with HT29 colon were 48 µM, 35 µM and 46.2 µM, respectively. Moreover, the TGI in the assay on MALME-3M melanoma, with UACC-62 melanoma, with OVCAR-4 ovarian, in the assay with UACC-257 melanoma, in the assay with K-562 leukemia and in the assay on NCI/ADR-RES ovarian was more than 100 µM in each case. Besides, the TGI with A549 NSCLC, with TK-10 renal and with HT29 colon was more than 100 µM each time.
